# Experimental data taken from patent US10233188B2, “CDK2/4/6 inhibitors” (priority 2016, dated 2019).
# What was measured:
# [1] = target: CDK6/Cyclin D1 (Homo sapiens (Human), UniProt Q00534); assay: biochemical; details: CDK6_Ki (nM), non-phosphorylated CDK6/Cyclin D1, 2 mM ATP, Morrison fit
# [2] = target: CDK2/Cyclin E1 (Homo sapiens (Human), UniProt P24941); assay: biochemical; details: CDK2_Ki (nM), phosphorylated CDK2/Cyclin E1, 150 μM ATP, Morrison tight-binding fit
# Method: The assay was initiated with the addition of ATP, following a fifteen minutes pre-incubation of enzyme and inhibitor at room temperature in the reaction mixture. The reaction was stopped after 45 minutes at room temperature by the addition of 50 μL of 80 mM EDTA, pH 7.5.
# Chain of CDK6/Cyclin D1 (Q00534 whole entry): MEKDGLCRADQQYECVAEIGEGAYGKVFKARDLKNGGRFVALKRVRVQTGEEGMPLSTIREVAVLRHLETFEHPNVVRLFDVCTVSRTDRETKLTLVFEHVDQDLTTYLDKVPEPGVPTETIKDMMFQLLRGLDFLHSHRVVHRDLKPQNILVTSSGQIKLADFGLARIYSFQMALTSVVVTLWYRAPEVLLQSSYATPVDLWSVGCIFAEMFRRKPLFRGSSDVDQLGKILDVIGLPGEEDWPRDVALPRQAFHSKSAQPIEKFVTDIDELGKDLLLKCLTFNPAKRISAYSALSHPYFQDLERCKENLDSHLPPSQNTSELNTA
# Chain of CDK6/Cyclin D1 (P24385 whole entry partner): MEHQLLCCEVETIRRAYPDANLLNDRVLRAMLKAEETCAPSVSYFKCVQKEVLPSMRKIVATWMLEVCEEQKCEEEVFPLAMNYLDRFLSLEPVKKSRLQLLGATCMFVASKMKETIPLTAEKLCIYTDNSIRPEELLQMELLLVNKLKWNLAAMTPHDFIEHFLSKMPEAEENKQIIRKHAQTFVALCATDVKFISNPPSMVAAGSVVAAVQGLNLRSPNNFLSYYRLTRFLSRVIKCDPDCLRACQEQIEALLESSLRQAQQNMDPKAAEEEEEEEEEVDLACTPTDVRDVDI
Ki [1],Ki [2],Compound
1.06 nM,0.24 nM,"Cc1cc2cnc(NC3CCN(S(=O)(=O)NC4CCOCC4)CC3)nc2n([C@@H]2CCC[C@@]2(C)O)c1=O (single isomer, unassigned) [Example 96, (−)-4-({8-[(1R*,2R*)-2-hydroxy-2-methylcyclopentyl]-6-methyl-7-oxo-7,8-dihydropyrido[2,3-d]pyrimidin-2-yl}amino)-N-(tetrahydro-2H-pyran-4-yl)piperidine-1-sulfonamide]"
0.85 nM,0.12 nM,"C[C@@H]1[C@H](O)CC[C@H]1n1c(=O)ccc2cnc(NC3CCN(S(C)(=O)=O)CC3)nc21 (single isomer, unassigned) [Example 201, (−)-8-[(1R*,2S*,3R*)-3-hydroxy-2-methylcyclopentyl]-2-{[1-(methylsulfonyl)piperidin-4-yl]amino}pyrido[2,3-d]pyrimidin-7(8H)-one]"
4.78 nM,4.26 nM,"Cc1cc2cnc(NC3CCN(S(C)(=O)=O)CC3)nc2n([C@@H]2COC[C@@]2(C)O)c1=O (single isomer, unassigned) [Example 197, (−)-8-[(3R*,4S*)-4-hydroxy-4-methyltetrahydrofuran-3-yl]-6-methyl-2-{[1-(methylsulfonyl)piperidin-4-yl]amino}pyrido[2,3-d]pyrimidin-7(8H)-one]"
46.1 nM,155 nM,"CNS(=O)(=O)N1CCC(Nc2ncc3cc(C)c(=O)n([C@@H]4CCC[C@@H]4C)c3n2)CC1 [Example 42, N-methyl-4-({6-methyl-8-[(1R,2S)-2-methylcyclopentyl]-7-oxo-7,8-dihydropyrido[2,3-d]pyrimidin-2-yl}amino)piperidine-1-sulfonamide]"
0.38 nM,0.43 nM,"C[C@@]1(O)CCC[C@H]1n1c(=O)c(CO)cc2cnc(NC3CCN(S(C)(=O)=O)CC3)nc21 (single isomer, unassigned) [Example 185, (−)-6-(hydroxymethyl)-8-[(1R*,2R*)-2-hydroxy-2-methylcyclopentyl]-2-{[1-(methylsulfonyl)piperidin-4-yl]amino}pyrido[2,3-d]pyrimidin-7(8H)-one]"
2.27 nM,2.55 nM,"CC[C@@]1(O)CCC[C@H]1n1c(=O)ccc2cnc(NC3CCN(S(C)(=O)=O)CC3)nc21 (single isomer, unassigned) [Example 193, (−)-(8-[(1R*,2R*)-2-ethyl-2-hydroxycyclopentyl]-2-{[1-(methylsulfonyl)piperidin-4-yl]amino}pyrido[2,3-d]pyrimidin-7(8H)-one]"
13.1 nM,4.75 nM,"C[C@@]1(O)CCC[C@H]1n1c(=O)c(F)cc2cnc(NC3CCN(S(C)(=O)=O)CC3)nc21 (single isomer, unassigned) [Example 5, (+)-6-fluoro-8-[(1R*,2R*)-2-hydroxy-2-methylcyclopentyl]-2-{[1-(methylsulfonyl)piperidin-4-yl]amino}pyrido[2,3-d]pyrimidin-7(8H)-one]"
2.44 nM,0.8 nM,"C[C@H]1[C@@H](O)CC[C@@H]1n1c(=O)ccc2cnc(NC3CCN(S(C)(=O)=O)CC3)nc21 (single isomer, unassigned) [Example 202, (+)-8-[(1R*,2S*,3R*)-3-hydroxy-2-methylcyclopentyl]-2-{[1-(methylsulfonyl)piperidin-4-yl]amino}pyrido[2,3-d]pyrimidin-7(8H)-one]"
2.72 nM,3.01 nM,"C[C@]1(O)CCC[C@@H]1n1c(=O)ccc2cnc(NC3CCN(S(=O)(=O)CC4CC4)CC3)nc21 (single isomer, unassigned) [Example 91, (+)-2-({1-[(cyclopropylmethyl)sulfonyl]piperidin-4-yl}amino)-8-[(1R*,2R*)-2-hydroxy-2-methylcyclopentyl]pyrido[2,3-d]pyrimidin-7(8H)-one]"
4.36 nM,0.34 nM,"Cc1cc2cnc(NC3CCN(S(=O)(=O)CC(F)(F)F)CC3)nc2n([C@@H]2CCC[C@@]2(C)O)c1=O (single isomer, unassigned) [Example 118, (−)-8-[(1R*,2R*)-2-hydroxy-2-methylcyclopentyl]-6-methyl-2-({1-[(2,2,2-trifluoroethyl)sulfonyl]piperidin-4-yl}amino)pyrido[2,3-d]pyrimidin-7(8H)-one]"
